“Also recorded” adds a separate entry of the source.
Target: T1, holo-CRBP1 (Homo sapiens, UniProt P09455)
T1 construct: made in house
T1 sequence (P09455 1-135): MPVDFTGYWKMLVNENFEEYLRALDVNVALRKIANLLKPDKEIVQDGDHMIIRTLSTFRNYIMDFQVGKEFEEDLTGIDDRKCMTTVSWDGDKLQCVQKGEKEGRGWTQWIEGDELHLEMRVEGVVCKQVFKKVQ
Assay: Retinol replacement assay with repurification and LC/MS
Type: binding
Protocol: holo-CRBP1 (500 μg) in 0.5 mL (67 μM) was incubated with tested compound (1:2 molar ratio) delivered in ethanol in 20 mM Tris/HCl, pH 8.0, 200 mM NaCl, 5% glycerol (v/v) at RT for 15 min. The sample was then diluted with 10 mM Tris/HCl, pH 8.0 to the final volume of 5 mL, loaded onto HiTrap Q HP column, and eluted as described above. The elution profiles were monitored at both 280 and 325 nm to concurrently record signals for the protein and the retinoid moieties.
After incubation of apo- or holo-CRBP1 with abn-CBD, the protein was repurified on HiTrap Q HP column as described above. The protein fractions were collected, pooled together, and concentrated to 0.25 mL in an Amicon Ultra-4 centrifugal filter, cutoff 10,000 Da. For quantification purpose, 100 pmol of 3d-abn-CBD (internal standard) were added to the protein samples. To extract organic compounds associated with the repurified CRBP1, 0.25 mL of ethanol was added followed by 4 mL of hexane. […] Abn-CBD and its deuterated derivative were detected in the selected reaction monitoring (SRM) mode using m/z 315.2→221.2 and 318.2→224.1 transitions, respectively. Calibration curves were calculated based on the linear relationship between areas under SRM ion intensity for peaks corresponding to abn-CBD and the internal standard versus molar ratios of these compounds in a range from 20 to 500 pmol.

`C=C(C)[C@@H]1CCC(C)=C[C@H]1c1c(O)cc(O)cc1CCCCC` [abn-CBD, 4-[(1R,6R)-3-Methyl-6-prop-1-en-2-ylcyclohex-2-en-1-yl]-5-pentylbenzene-1,3-diol] was tested, and the “loss of atROL from holo-CRBP1 (absorbance at 325 nm)” value (holo-CRBP1 incubated with compound 1:2 molar ratio, repurified) was “diminished absorbance at 325 nm; also recorded: depletion of atROL” and the “replacement of atROL by ligand (ligand/protein quantification)” value (holo-CRBP1 with 2 molar excess of abn-CBD, LC/MS) was “proportional replacement of the retinoid by the cannabinoid”.

Reference: patent US20210228500A1, “CELLULAR RETINOID BINDING PROTEIN ANTAGONISTS AND USES THEREOF” (CASE WESTERN RESRVE UNIVERSITY, priority 2018, published 2021)
